For data set [1], the target named is T1, leptin receptor (Homo sapiens, UniProt P48357).
T1 construct: purchased R&D Systems
T1 sequence (P48357 22-1165): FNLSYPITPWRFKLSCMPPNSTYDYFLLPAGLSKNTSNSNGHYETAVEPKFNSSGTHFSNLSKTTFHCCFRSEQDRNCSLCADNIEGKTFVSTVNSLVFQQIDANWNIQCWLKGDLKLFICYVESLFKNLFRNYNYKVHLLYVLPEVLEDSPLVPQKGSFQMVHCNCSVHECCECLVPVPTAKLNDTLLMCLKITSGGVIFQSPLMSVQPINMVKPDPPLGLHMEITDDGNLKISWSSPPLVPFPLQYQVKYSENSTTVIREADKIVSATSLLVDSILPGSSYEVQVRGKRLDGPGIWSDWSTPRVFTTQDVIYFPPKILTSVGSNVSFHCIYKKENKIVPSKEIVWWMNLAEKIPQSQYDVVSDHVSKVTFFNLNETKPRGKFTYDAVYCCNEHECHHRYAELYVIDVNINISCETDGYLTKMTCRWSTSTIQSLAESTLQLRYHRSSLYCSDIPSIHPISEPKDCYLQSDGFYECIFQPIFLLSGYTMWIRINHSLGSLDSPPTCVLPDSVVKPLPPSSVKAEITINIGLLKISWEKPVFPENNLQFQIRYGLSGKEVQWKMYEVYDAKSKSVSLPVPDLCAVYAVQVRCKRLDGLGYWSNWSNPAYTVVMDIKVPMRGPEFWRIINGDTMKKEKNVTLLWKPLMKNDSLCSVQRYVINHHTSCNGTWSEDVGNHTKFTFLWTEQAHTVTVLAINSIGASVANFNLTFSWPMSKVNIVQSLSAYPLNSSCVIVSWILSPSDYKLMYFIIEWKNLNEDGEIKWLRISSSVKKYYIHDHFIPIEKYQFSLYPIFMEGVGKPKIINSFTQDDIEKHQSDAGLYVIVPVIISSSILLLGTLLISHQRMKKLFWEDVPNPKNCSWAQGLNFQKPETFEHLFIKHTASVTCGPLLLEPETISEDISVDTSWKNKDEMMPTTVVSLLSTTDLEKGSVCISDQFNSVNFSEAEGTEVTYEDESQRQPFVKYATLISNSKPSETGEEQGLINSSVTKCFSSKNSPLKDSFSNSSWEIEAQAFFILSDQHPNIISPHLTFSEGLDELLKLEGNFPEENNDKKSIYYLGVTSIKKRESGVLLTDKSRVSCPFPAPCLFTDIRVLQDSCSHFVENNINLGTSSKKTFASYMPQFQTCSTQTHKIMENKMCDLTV
Put plainly: SPR biosensor binding of peptide to immobilized leptin receptor. The settings on record: for kon: read-out: association constant (Ka). The method, then: The direct binding of diLep9R3LC or Lep9R3LC to the target was evaluated using a dual-channel surface plasmon resonance (SPR) instrument (Reichert SR7500DC system, Depew, NY). The process of immobilizing the leptin receptor protein (R&D Systems, Minneapolis, MN) onto the sensor chip surface was accomplished using free amine coupling through an 1-ethyl-3-(3-dimethylaminopropyl) carbodiimide hydrochloride (EDC)/N-hydroxysuccinimide (NHS) reaction. The process of the EDC/NHS reaction involves injecting a mixture containing 0.1 M EDC and 0.05 M NHS. Subsequently, the remaining activated carboxyl groups were quenched with 1 M ethanolamine at pH 6.0. All dilutions of the working peptides were prepared in the running buffer (PBS with 1% DMSO) and injected for 3 min (association time) at a flow rate of 50 μl/min followed by a dissociation phase of 3 min. Nonspecific background binding was subtracted from each sensogram using SPR_V4017 Data Acquisition and Alignment Program (Reichert, Depew, NY). Binding rates and constants were independent of flow rate over a wide range. Best-fit kinetic parameters were obtained by global fitting analysis using Scrubber2 (Biologic Software, Australia).

Data set [2] deals with N2a cells. Nature of the data set: Cytotoxicity, Cell Counting Kit-8 assay. The settings on record: 24 h posttransfection, Cell Counting Kit-8, at tested weight ratio, with siSOD1 (Fig. 1G). In general terms: Formazan colour is commonly taken as a measure of viable cells.
The next data set relates to SOD1. Put plainly: SOD1 gene silencing in mouse organs and brain regions, qPCR. The data set is classed as in vivo, mice. The following applies: 400 pmol siSOD1, 100 μg peptide, tail vein, daily for 3 d, n = 8. The method, then: All procedures were performed in compliance with guidelines and protocols approved by the Institutional Animal Care and Use Committee (IACUC) of Hanyang University. The Balb/c mice were used to test the in vivo delivery of complexed particles to the brain. To ascertain ligand-receptor-mediated delivery of diLep9R3LC:siRNA, the leptin-receptor-deficient (db/db, Jackson Laboratory, ME) strains were utilized. Further, to study therapeutic efficacy of siRNA in AD, 7-month-old male 3xTg (B6;129-Psen1tm1Mpm Tg (APPSwe,tauP301L)1Lfa/Mmjax) mice (Jackson Laboratory, ME) were used. These mice show AD-like pathological and physiological characteristics with respect to formation of Aβ plaques and tangled tau as well as abnormal behaviors. […] In all experiments, a group of control mice (n = 4) were also injected with DPBS (pH 7.4).
For quantitative polymerase chain reaction (qPCR), total RNA was extracted from N2a cells 24 h posttransfection and homogenized brain samples using the RNAiso kit (Takara, Kyoto, Japan). The RNA was quantified with SYBR premix Ex Taq perfect real time (Takara, Kyoto, Japan) with qPCR primers. In all cases, relative gene expression was calculated in comparison to normalized target mRNA levels in nontreated groups. […] All primers were synthesized from Cosmogenetech (Seoul, Korea), and sequences are depicted below.
(In general: Real-time PCR tracks product formation cycle by cycle.)

Data set [3] has as its system N2a cells.
Data set [4] addresses T2, leptin receptor (Mus musculus, UniProt P48356).
T2 chain: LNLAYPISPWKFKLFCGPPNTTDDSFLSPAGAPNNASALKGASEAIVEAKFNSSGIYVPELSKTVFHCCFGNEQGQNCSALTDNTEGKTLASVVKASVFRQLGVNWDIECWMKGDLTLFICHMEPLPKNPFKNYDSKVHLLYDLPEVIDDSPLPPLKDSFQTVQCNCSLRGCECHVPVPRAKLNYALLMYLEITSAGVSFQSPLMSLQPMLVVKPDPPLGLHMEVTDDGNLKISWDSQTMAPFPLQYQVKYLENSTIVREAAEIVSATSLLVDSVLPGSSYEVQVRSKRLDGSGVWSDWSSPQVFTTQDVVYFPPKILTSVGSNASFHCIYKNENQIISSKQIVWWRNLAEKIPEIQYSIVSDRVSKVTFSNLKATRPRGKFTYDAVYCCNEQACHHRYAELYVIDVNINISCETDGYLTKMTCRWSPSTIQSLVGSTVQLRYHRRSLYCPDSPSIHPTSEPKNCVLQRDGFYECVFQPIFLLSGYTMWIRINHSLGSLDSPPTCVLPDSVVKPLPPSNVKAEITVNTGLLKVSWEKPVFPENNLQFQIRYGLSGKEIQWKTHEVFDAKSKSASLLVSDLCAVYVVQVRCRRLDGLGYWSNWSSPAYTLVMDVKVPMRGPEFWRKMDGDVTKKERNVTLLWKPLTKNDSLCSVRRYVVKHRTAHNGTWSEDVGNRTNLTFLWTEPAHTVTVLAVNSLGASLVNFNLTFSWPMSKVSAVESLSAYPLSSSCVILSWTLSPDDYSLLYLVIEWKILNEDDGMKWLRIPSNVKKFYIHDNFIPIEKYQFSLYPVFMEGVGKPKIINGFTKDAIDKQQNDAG
Nature of the data set: SPR. In general terms: Surface plasmon resonance follows binding to a sensor surface in real time, without labels.

Read-outs that look alike come from different tables or passages of the source. Bridge positions count the residues as written; N and C are the ends. Ends that are not written are not given here. I, II: the chains in the order shown.

Regarding “I: YQQVLTSLPSQNVLQIANDLENLRDLLHLLGGGGRRRRRRRRRLLLC / II: YQQVLTSLPSQNVLQIANDLENLRDLLHLLGGGGRRRRRRRRRLLLC (disulfide I:47-II:47) [diLep9R3LC]”, on leptin receptor [1], the kon came out at 3300 M⁻¹ s⁻¹. For the same molecule, the cytotoxicity entry in the data set on N2a cells [2] is recorded as “did not show any cytotoxicity”.

Regarding “EVGQSDYSSYARTSIRASLTFGGGGRRRRRRRRRLLLC [scrambled9R, scrambled peptide, nontargeting control]”, the “SOD1 silencing, brain” value in the data set with SOD1 is given as “not when used with scrambled peptide”.

Regarding “YQQVLTSLPSQNVLQIANDLENLRDLLHLLGGGGRRRRRRRRRLLLC [Lep9R3LC]”, the cytotoxicity result with N2a cells [3] is recorded as “did not show any cytotoxicity”. The kon on leptin receptor [1] (SPR Reichert SR7500DC, amine-coupled receptor, running buffer PBS with 1% DMSO, 3 min association, 3 min dissociation, 50 μl/min, global fit Scrubber2) came out at 1100 M⁻¹ s⁻¹. Moreover, at leptin receptor [1] (SPR, leptin receptor immobilized, PBS with 1% DMSO, global fit, read-out: binding affinity (KD) (Kd/Ka)), the Kd came to 1380 nM.

In the data set with leptin receptor [4], YQQVLTSLPSQNVLQIANDLENLRDLLHLLGGGGRRRRRRRRRLLLC [Lep9R3LC] returned a Kd of 1380 nM.

As to YQQVLTSLPSQNVLQIANDLENLRDLLHLLGGGGRRRRRRRRRLLLC (also: disulfide-linked dimer via C-terminal Cys) [diLep9R3LC], the Kd with leptin receptor [4] was 462 nM.

The values above are taken from paper PMC11168191, “Systemic Treatment with siRNA Targeting Gamma-Secretase Activating Protein Inhibits Amyloid-β Accumulation in Alzheimer’s Disease” (Biomaterials Research, 2024).
